These results are taken from patent US11420958B2, “Aryl and heteroaryl substituted indole compounds” (BRISTOL-MYERS SQUIBB COMPANY, priority 2017, dated 2022).

Each structure is given as a SMILES string. Bounds are passed on as bounds.

What all share (format): cell-based
In test [1] the target is human TLR7 (Homo sapiens (Human), UniProt Q9NYK1). The experiment in a line: TLR7 inhibition reporter assay (HEK-Blue, SEAP). The conditions noted are these: HEK-Blue cells overexpressing human TLR7, gardiquimod 7.5 μM stimulation. The essentials: (§1)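 Cells are treated with compound over a 0.05 nM–50 μM final range for 30 min at room temperature before agonist addition: gardiquimod at 7.5 μM for TLR7, R848 at 15.9 μM for TLR8, ODN2006 at 5 nM for TLR9. SEAP is measured after 22 h at 37 °C.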
For orientation: A reporter such as luciferase makes a cellular process visible.

Test [2] has as its target human TLR8 (Homo sapiens (Human), UniProt Q9NR97). The experiment in a line: TLR8 inhibition reporter assay (HEK-Blue, SEAP). The conditions noted are these: HEK-Blue cells overexpressing human TLR8, R848 15.9 μM stimulation. The method in brief: as §1
The target of test [3] is human TLR9 (Homo sapiens (Human), UniProt Q9NR96). The experiment in a line: TLR9 inhibition reporter assay (HEK-Blue, SEAP). The conditions noted are these: HEK-Blue cells overexpressing human TLR9, ODN2006 5 nM stimulation. The method in brief: as §1
human TLR9, sequence (Q9NR96 26-1032): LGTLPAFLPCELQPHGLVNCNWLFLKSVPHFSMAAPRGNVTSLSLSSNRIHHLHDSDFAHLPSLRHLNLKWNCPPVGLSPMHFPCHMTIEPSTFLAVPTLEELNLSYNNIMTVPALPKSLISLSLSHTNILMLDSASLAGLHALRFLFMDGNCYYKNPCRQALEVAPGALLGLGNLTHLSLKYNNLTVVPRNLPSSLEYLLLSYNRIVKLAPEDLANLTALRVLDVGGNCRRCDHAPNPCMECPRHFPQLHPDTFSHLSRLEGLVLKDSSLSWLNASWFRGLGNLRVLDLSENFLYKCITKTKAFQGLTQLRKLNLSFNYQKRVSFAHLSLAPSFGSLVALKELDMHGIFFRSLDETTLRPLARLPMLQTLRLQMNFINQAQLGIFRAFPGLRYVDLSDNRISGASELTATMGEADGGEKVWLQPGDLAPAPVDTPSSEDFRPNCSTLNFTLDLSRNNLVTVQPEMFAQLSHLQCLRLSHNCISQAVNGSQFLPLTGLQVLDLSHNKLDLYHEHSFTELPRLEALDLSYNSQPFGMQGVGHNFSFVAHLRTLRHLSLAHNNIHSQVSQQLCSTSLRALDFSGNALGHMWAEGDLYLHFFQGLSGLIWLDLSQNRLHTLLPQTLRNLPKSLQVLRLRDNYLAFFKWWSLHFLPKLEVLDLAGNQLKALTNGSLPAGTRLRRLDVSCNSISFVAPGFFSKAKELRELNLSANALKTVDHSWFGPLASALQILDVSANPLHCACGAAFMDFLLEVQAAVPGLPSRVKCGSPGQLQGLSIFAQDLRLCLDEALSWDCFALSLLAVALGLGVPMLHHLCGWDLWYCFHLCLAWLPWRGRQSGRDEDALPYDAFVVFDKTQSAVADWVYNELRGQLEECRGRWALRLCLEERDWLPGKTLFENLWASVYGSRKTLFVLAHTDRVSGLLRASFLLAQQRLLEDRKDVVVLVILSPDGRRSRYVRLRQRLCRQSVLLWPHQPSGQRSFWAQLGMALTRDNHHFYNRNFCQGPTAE

human TLR8, sequence (Q9NR97 27-1041): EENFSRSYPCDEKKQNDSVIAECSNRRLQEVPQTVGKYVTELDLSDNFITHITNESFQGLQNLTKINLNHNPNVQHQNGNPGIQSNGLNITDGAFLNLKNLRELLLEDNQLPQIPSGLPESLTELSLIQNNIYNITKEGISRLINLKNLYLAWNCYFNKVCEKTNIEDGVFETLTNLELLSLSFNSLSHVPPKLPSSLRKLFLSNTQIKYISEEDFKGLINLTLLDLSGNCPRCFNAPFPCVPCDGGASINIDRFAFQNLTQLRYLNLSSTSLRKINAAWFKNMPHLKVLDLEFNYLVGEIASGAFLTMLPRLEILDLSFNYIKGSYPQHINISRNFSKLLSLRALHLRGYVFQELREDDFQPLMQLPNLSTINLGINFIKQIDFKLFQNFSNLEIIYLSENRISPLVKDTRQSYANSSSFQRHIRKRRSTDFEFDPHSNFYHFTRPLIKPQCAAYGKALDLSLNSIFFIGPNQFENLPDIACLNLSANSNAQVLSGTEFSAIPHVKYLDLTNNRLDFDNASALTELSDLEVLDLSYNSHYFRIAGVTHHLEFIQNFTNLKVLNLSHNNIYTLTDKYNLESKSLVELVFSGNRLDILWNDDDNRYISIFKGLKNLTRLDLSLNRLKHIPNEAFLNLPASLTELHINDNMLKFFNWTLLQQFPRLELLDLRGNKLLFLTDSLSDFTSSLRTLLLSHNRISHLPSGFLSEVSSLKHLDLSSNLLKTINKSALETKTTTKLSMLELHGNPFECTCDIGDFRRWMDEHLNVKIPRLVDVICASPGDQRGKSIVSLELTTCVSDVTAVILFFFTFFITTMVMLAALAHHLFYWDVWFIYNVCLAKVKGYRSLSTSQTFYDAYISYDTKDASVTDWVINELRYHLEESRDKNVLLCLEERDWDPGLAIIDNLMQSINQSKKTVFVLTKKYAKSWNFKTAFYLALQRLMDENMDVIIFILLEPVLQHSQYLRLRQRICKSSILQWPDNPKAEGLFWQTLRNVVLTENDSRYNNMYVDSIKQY
human TLR7, sequence (Q9NYK1 27-1049): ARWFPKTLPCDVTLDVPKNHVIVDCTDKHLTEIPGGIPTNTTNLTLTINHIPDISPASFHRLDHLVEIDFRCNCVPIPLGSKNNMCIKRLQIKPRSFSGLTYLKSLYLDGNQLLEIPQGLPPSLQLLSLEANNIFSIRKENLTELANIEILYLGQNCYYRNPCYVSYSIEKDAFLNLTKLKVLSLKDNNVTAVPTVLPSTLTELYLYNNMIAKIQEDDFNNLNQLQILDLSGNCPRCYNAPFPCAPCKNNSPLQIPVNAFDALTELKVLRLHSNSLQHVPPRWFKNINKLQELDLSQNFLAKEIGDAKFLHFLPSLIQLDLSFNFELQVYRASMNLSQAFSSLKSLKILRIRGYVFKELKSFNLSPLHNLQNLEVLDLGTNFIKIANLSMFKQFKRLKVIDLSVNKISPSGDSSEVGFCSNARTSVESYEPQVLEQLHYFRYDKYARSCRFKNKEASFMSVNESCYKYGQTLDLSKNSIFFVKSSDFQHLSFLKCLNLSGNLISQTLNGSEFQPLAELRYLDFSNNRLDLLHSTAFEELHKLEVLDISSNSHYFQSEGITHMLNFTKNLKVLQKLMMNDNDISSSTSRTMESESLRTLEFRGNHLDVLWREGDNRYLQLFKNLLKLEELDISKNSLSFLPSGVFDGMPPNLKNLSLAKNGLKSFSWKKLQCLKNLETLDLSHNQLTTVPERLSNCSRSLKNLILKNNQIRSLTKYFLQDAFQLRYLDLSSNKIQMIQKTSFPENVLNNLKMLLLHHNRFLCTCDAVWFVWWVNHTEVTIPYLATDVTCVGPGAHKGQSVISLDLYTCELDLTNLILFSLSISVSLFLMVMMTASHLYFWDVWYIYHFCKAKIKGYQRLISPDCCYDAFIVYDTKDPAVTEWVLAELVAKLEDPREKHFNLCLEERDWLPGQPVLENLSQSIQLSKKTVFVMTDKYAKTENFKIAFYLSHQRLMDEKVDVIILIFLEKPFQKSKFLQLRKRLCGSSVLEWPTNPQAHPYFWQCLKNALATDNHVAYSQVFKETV

Take `COc1ccc(-c2[nH]c3ccc(-c4nnc(CNCCOC(C)C)o4)cc3c2C(C)C)cc1OC` [Example 114, N-((5-(2-(3,4-dimethoxyphenyl)-3-isopropyl-1H-indol-5-yl)-1,3,4-oxadiazol-2-yl)methyl)-2-isopropoxyethan-1-amine]: the IC50 in test [1] was 386 nM; in test [2], 530 nM; in test [3] it was above 50000 nM.

As to `COc1ccc(-c2[nH]c3ccc(-c4nnc(CN5CCOCC5)o4)cc3c2C(C)C)cc1OC` [Example 115, 4-((5-(2-(3,4-dimethoxyphenyl)-3-isopropyl-1H-indol-5-yl)-1,3,4-oxadiazol-2-yl)methyl)morpholine], the IC50 was 579 nM in test [1], 202 nM in test [2] and above 50000 nM in test [3].

As to `COc1ccc(-c2[nH]c3ccc(-c4nnc(CN5CCN(C(C)=O)CC5)o4)cc3c2C(C)C)cc1OC` [Example 116, 1-(4-((5-(2-(3,4-dimethoxyphenyl)-3-isopropyl-1H-indol-5-yl)-1,3,4-oxadiazol-2-yl)methyl)piperazin-1-yl)ethan-1-one], the IC50 in test [1] is 331 nM; in test [2], 395 nM; in test [3] it was above 50000 nM.

For the compound `COc1ccc(-c2[nH]c3ccc(-c4nnc(CN5CC[C@H](NC(C)=O)C5)o4)cc3c2C(C)C)cc1OC` [Example 117, (S)—N-(1-((5-(2-(3,4-dimethoxyphenyl)-3-isopropyl-1H-indol-5-yl)-1,3,4-oxadiazol-2-yl)methyl)pyrrolidin-3-yl)acetamide], the values for the IC50 in test [1], in test [2] and in test [3] were 704 nM, 50 nM and above 50000 nM, respectively.

As for `COCCN(CCOC)Cc1nnc(-c2ccc3[nH]c(-c4ccc(OC)c(OC)c4)c(C(C)C)c3c2)o1` [Example 118, N-((5-(2-(3,4-dimethoxyphenyl)-3-isopropyl-1H-indol-5-yl)-1,3,4-oxadiazol-2-yl)methyl)-2-methoxy-N-(2-methoxyethyl)ethan-1-amine], the IC50 amounted to 227 nM in test [1], 362 nM in test [2] and 18600 nM in test [3].

On to `COc1ccc(-c2[nH]c3ccc(-c4nnc(CN5CCCN(C(C)=O)CC5)o4)cc3c2C(C)C)cc1OC` [Example 119, 1-(4-((5-(2-(3,4-dimethoxyphenyl)-3-isopropyl-1H-indol-5-yl)-1,3,4-oxadiazol-2-yl)methyl)-1,4-diazepan-1-yl)ethan-1-one], for which the IC50 in test [1] was determined as 106 nM; in test [2], 99 nM; in test [3] it was 14400 nM.

With `COc1ccc(-c2[nH]c3ccc(-c4nnc(CN5CCNC(=O)C5)o4)cc3c2C(C)C)cc1OC` [Example 120, 4-((5-(2-(3,4-dimethoxyphenyl)-3-isopropyl-1H-indol-5-yl)-1,3,4-oxadiazol-2-yl)methyl)piperazin-2-one], the IC50 is 371 nM in test [1], 222 nM in test [2] and above 50000 nM in test [3].

Take `COCCN(C)Cc1nnc(-c2ccc3[nH]c(-c4ccc(OC)c(OC)c4)c(C(C)C)c3c2)o1` [Example 121, N-((5-(2-(3,4-dimethoxyphenyl)-3-isopropyl-1H-indol-5-yl)-1,3,4-oxadiazol-2-yl)methyl)-2-methoxy-N-methylethan-1-amine]: the IC50 in test [1] is 108 nM; in test [2] it was 166 nM; in test [3], above 50000 nM.

`COc1ccc(-c2[nH]c3ccc(-c4nnc(CN5CCC[C@H]5C(N)=O)o4)cc3c2C(C)C)cc1OC` [Example 122, (S)-1-((5-(2-(3,4-dimethoxyphenyl)-3-isopropyl-1H-indol-5-yl)-1,3,4-oxadiazol-2-yl)methyl)pyrrolidine-2-carboxamide]: the IC50 in test [1] was 225 nM; in test [2], 279 nM; in test [3], above 50000 nM.

`C#CCN(C)Cc1nnc(-c2ccc3[nH]c(-c4ccc(OC)c(OC)c4)c(C(C)C)c3c2)o1` [Example 123, N-((5-(2-(3,4-dimethoxyphenyl)-3-isopropyl-1H-indol-5-yl)-1,3,4-oxadiazol-2-yl)methyl)-N-methylprop-2-yn-1-amine]: the IC50 was 703 nM in test [1], 213 nM in test [2] and above 50000 nM in test [3].

As to `COc1ccc(-c2[nH]c3ccc(-c4nnc(C5CCNCC5)[nH]4)cc3c2C(C)C)cc1OC` [Example 124, 2-(3,4-dimethoxyphenyl)-3-isopropyl-5-(5-(piperidin-4-yl)-4H-1,2,4-triazol-3-yl)-1H-indole], the IC50 in test [1] is 182 nM; in test [2], 108 nM; in test [3], 9200 nM.

As for `CC(C)c1c(-c2ccnc3[nH]ncc23)[nH]c2ccc(-c3nnc(C(=O)N4CCCN(C)CC4)o3)cc12` [Example 125, (5-(3-isopropyl-2-(1H-pyrazolo[3,4-b]pyridin-4-yl)-1H-indol-5-yl)-1,3,4-oxadiazol-2-yl)(4-methyl-1,4-diazepan-1-yl)methanone], the IC50 came to 183 nM in test [1], 40 nM in test [2] and 776 nM in test [3].

As to `CC(C)c1c(-c2ccnc3[nH]ncc23)[nH]c2ccc(-c3nnc([C@H]4CCCNC4)o3)cc12` [Example 126, (S)-2-(3-isopropyl-2-(1H-pyrazolo[3,4-b]pyridin-4-yl)-1H-indol-5-yl)-5-(piperidin-3-yl)-1,3,4-oxadiazole], the IC50 came to 45 nM in test [1], 3.4 nM in test [2] and 389 nM in test [3].

In the case of `COc1ccc(-c2[nH]c3ccc(-c4nc(C(=O)N5CC6CNCC6C5)co4)cc3c2C(C)C)cc1OC` (stereo not drawn) [Example 127, (2-(2-(3,4-dimethoxyphenyl)-3-isopropyl-1H-indol-5-yl)oxazol-4-yl)(hexahydropyrrolo[3,4-c]pyrrol-2(1H)-yl)methanone], the IC50 in test [1] is 21 nM; in test [2], 6.5 nM; in test [3] it was 1580 nM.

Regarding `CC(C)c1c(-c2ccnc3n[nH]cc23)[nH]c2ccc(-c3nnc(CN4CCCC4)o3)cc12` [Example 128, 2-(3-isopropyl-2-(2H-pyrazolo[3,4-b]pyridin-4-yl)-1H-indol-5-yl)-5-(pyrrolidin-1-ylmethyl)-1,3,4-oxadiazole], the IC50 in test [1] amounted to 1100 nM; in test [2], 167 nM; in test [3] it was 34100 nM.

As for `COc1ccc(-c2[nH]c3ccc(-c4nnc(C5CCN(CC(=O)N(C)C)CC5)[nH]4)cc3c2C(C)C)cc1OC` [Example 129, 2-(4-(5-(2-(3,4-dimethoxyphenyl)-3-isopropyl-1H-indol-5-yl)-4H-1,2,4-triazol-3-yl)piperidin-1-yl)-N,N-dimethylacetamide], the results for the half-inhibitory concentration (IC50) in test [1], in test [2] and in test [3] were 60 nM, 14 nM and 3460 nM, respectively.

Regarding `CNC(=O)CN1CCC(c2nnc(-c3ccc4[nH]c(-c5ccc(OC)c(OC)c5)c(C(C)C)c4c3)[nH]2)CC1` [Example 130, 2-(4-(5-(2-(3,4-dimethoxyphenyl)-3-isopropyl-1H-indol-5-yl)-4H-1,2,4-triazol-3-yl)piperidin-1-yl)-N-methylacetamide], the IC50 in test [1] came out at 27 nM; in test [2], 209 nM; in test [3], 7000 nM.

With `COc1ccc(-c2[nH]c3ccc(-c4nnc(C5CCN(C(=O)CN(C)C)CC5)[nH]4)cc3c2C(C)C)cc1OC` [Example 131, 1-(4-(5-(2-(3,4-dimethoxyphenyl)-3-isopropyl-1H-indol-5-yl)-4H-1,2,4-triazol-3-yl)piperidin-1-yl)-2-(dimethylamino)ethan-1-one], the IC50 was 29 nM in test [1], 37 nM in test [2] and 6480 nM in test [3].

One may read the IC50 as the concentration that gives 50% inhibition. A low value points to higher potency.
